Data taken from US20130171098A1, “Cyclopropyl Fused Indolobenzazepine HCV NS5B Inhibitors” (priority 2006, published 2013).
Read-outs that look alike come from different tables or passages of the source.

Legend:
HCV replicon cells = test: HCV replicon FRET / luciferase assay; type: cell-based, Hepatitis C virus
Protocol: The HCV FRET screening assay was performed in 96-well cell culture plates. The FRET peptide (Anaspec, Inc.) (Taliani et al., Anal. Biochem. 1996, 240, 60-67) contains a fluorescence donor, EDANS, near one end of the peptide and an acceptor, DABCYL, near the other end. The fluorescence of the peptide is quenched by […] resonance energy transfer (RET) between the donor and the acceptor, but as the NS3 protease cleaves the peptide the products are released from RET quenching and the fluorescence of the donor becomes apparent. The assay reagent was made as follows: 5× cell Luciferase cell culture lysis reagent from Promega (#E153A) diluted to 1× with dH2O, NaCl added to 150 mM final, the FRET peptide diluted to 20 μM final from a 2 mM stock.
To prepare plates, HCV replicon cells, with or without a Renilla luciferase reporter gene, were trypsinized and plated in a 96-well plate with titrated test compounds added in columns 3 through 12; columns 1 and 2 contained a control compound (HCV control inhibitor), and the bottom row contained cells with DMSO only. The plates were then placed in a CO2 incubator at 37° C.
Subsequent to addition of the test compounds described above (FRET Assay Preparation), at various times the plate was removed and Alamar blue solution (Trek Diagnostics, #00-100) was added to measure cellular toxicity. After reading in a Cytoflour 4000 instrument (PE Biosystems), plates were rinsed with PBS and then used for FRET assay by the addition of 30 ul of the FRET peptide assay reagent described above (FRET Assay Preparation) per well. The plate was then placed into the Cytoflour 4000 instrument which had been set to 340 excite/490 emission, automatic mode for up to 20 cycles and the plate read in a kinetic mode. Typically, the signal to noise using an endpoint analysis after the reads was at least three-fold. Alternatively, after Alamar blue reading, plates were rinsed with PBS, then used for luciferase assay using the Promega Dual-Glo Luciferase Assay System or the Promega EnduRen Live Cell Substrate assay.
Compound analysis was performed by quantification of the relative HCV replicon inhibition and the relative cytotoxicity values. To calculate cytoxicity values, the average Alamar Blue fluorescence signals from the control wells were set as 100% non-toxic. The individual signals in each of the compound test wells were then divided by the average control signal and multiplied by 100% to determine […]. To calculate the HCV replicon inhibition values, an average background value was obtained from the two wells containing the highest amount of HCV control inhibitor at the end of the assay period. These numbers were similar to those obtained from naïve Huh-7 cells. The background numbers were then subtracted from the average signal obtained from the control wells and this number was used as 100% activity. The individual signals in each of the compound test wells were then divided by the averaged control values after background subtraction and multiplied by 100% to determine percent activity. […] The two numbers generated for the compound plate, percent cytoxicity and percent activity, were used to determine compounds of interest for further analysis.

[1] = molecular target: T1, HCV NS5B RdRp genotype 1b (Hepatitis C virus genotype 1b, UniProt Q9WMX2); test: HCV NS5B RdRp enzyme assay (standard / modified); type: biochemical
T1 construct: The protein was expressed with an 18 amino acid C-terminal truncation to enhance the solubility; made in house; host or cells: E. coli BL21(DE3), pET21a vector
Protocol: HCV NS5B RdRp Cloning, Expression, and Purification.
The cDNA encoding the NS5B protein of HCV, genotype 1b, was cloned into the pET21a expression vector. The protein was expressed with an 18 amino acid C-terminal truncation to enhance the solubility. The E. coli competent cell line BL21(DE3) was used for expression of the protein. Cultures were grown at 37° C. for ˜4 hours until the cultures reached an optical density of 2.0 at 600 nm. The cultures were cooled to 20° C. and induced with 1 mM IPTG. Fresh ampicillin was added to a final concentration of 50 μg/ml and the cells were grown overnight at 20° C.
The lysis buffer consisted of 20 mM Tris-HCl, pH 7.4, 500 mM NaCl, 0.5% triton X-100, 1 mM DTT, 1 mM EDTA, 20% glycerol, 0.5 mg/ml lysozyme, 10 mM MgCl2, 15 ug/ml deoxyribonuclease I, and Complete TM protease inhibitor tablets (Roche). After addition of the lysis buffer, frozen cell pellets were resuspended using a tissue homogenizer. To reduce the viscosity of the sample, aliquots of the lysate were sonicated on ice using a microtip attached to a Branson sonicator. The sonicated lysate was centrifuged at 100,000×g for 1 hr at 4° C. and filtered through a 0.2 μm filter unit (Corning).
The protein was purified using two sequential chromatography steps: Heparin sepharose CL-6B and polyU sepharose 4B (Pharmacia). The chromatography buffers were identical to the lysis buffer but contained no lysozyme, deoxyribonuclease I, MgCl2 or protease inhibitor and the NaCl concentration of the buffer was adjusted according to the requirements for charging the protein onto the column. Each column was eluted with a NaCl gradient which varied in length from 5-50 column volumes depending on the column type. […] The enzyme was aliquoted and stored at −80° C.
Standard HCV NS5B RdRp Enzyme Assay.
HCV RdRp genotype 1b assays were run in a final volume of 60 μl in 96 well plates (Corning 3600). The assay buffer is composed of 20 mM Hepes, pH 7.5, 2.5 mM KCl, 2.5 mM MgCl2, 1 mM DTT, 1.6 U RNAse inhibitor (Promega N2515), 0.01 mg/ml BSA (Sigma B6917), and 2% glycerol. All compounds were serially diluted (3-fold) in DMSO and diluted further in water such that the final concentration of DMSO in the assay was 2%. HCV RdRp genotype 1b enzyme was used at a final concentration of 28 nM. A polyA template was used at 6 nM, and a biotinylated oligo-dT12 primer was used at 180 nM final concentration. Template was obtained commercially (Amersham 27-4110). Biotinylated primer was prepared by Sigma Genosys. 3H-UTP was used at 0.6 μCi (0.29 μM total UTP). Reactions were initiated by the addition of enzyme, incubated at 30° C. for 60 min, and stopped by adding 25 μl of 50 mM EDTA containing SPA beads (4 μg/μl, Amersham RPNQ 0007). Plates were read on a Packard Top Count NXT after >1 hr incubation at room temperature.
Modified HCV NS5B RdRp Enzyme Assay.
A modified enzyme assay was performed essentially as described for the standard enzyme assay except for the following: The biotinylated oligo dT12 primer was precaptured on streptavidin-coated SPA beads by mixing primer and beads in assay buffer and incubating at room temperature for one hour. Unbound primer was removed after centrifugation. The primer-bound beads were resuspended in 20 mM Hepes buffer, pH 7.5 and used in the assay at final concentrations of 20 nM primer and 0.67 μg/μl beads. Order of addition in the assay: enzyme (1.75 nM) was added to diluted compound followed by the addition of a mixture of template (0.36 nM), 3H-UTP (0.6 μCi, 0.29 μM), and primer-bound beads, to initiate the reaction; concentrations given are final. Reactions were allowed to proceed for 4 hours at 30° C.
IC50 values for compounds were determined using seven different [I].

[2] = Hepatitis C virus, HCV replicon cells, FRET or luciferase activity, read-out: EC50
[3] = HCV NS5B RdRp genotype 1b enzyme, read-out: IC50

T1 sequence (Q9WMX2 2420-2992): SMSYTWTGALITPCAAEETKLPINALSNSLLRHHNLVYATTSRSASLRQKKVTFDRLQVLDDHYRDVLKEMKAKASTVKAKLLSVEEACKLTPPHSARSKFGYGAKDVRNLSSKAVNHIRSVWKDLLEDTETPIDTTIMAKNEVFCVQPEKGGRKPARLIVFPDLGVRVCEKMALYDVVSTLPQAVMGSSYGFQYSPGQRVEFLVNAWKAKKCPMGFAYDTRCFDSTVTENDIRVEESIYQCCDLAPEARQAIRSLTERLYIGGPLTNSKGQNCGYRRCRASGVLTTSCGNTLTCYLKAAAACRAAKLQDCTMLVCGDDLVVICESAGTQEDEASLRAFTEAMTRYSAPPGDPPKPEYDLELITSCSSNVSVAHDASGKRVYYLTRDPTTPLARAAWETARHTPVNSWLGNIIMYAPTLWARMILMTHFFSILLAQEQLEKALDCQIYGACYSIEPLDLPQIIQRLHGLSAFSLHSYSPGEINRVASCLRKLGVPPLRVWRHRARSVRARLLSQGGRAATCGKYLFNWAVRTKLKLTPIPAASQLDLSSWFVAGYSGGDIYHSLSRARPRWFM

Compound	EC50 (HCV replicon cells; Hepatitis C virus) [nM]	IC50 [1] [nM]	also measured
COc1ccc2c(c1)C1CC1(C(=O)N1CC3CCC(C1)N3C(=O)OC(C)(C)C)Cn1c-2c(C2CCCCC2)c2ccc(C(=O)NS(=O)(=O)N(C)C)cc21 (stereo not drawn)	1 to 500	< 20	–
COc1ccc2c(c1)C1CC1(C(=O)N1CC3CCC(C1)N3)Cn1c-2c(C2CCCCC2)c2ccc(C(=O)NS(=O)(=O)N(C)C)cc21 (stereo not drawn)	1 to 500	1 to 500	–
COc1ccc2c(c1)C1CC1(C(=O)N1CC3CCC(C1)N3C(C)C)Cn1c-2c(C2CCCCC2)c2ccc(C(=O)NS(=O)(=O)N(C)C)cc21 (stereo not drawn)	1 to 500	< 20	–
COc1ccc2c(c1)C1CC1(C(=O)N1C3CCC1CN(C)C3)Cn1c-2c(C2CCCCC2)c2ccc(C(=O)NS(=O)(=O)C3CC3)cc21 (stereo not drawn)	1 to 500	1 to 500	–
COc1ccc2c(c1)[C@@H]1C[C@]1(C(=O)N1C3CCC1CN(C)C3)Cn1c-2c(C2CCCCC2)c2ccc(C(=O)NS(=O)(=O)N(C)C)cc21	–	–	EC50 (HCV replicon cells; [2]): 1 to 500 nM; IC50 [1, 3]: 1 to 500 nM
COc1ccc2c(c1)[C@H]1C[C@@]1(C(=O)N1[C@@H]3CC[C@H]1CN(C)C3)Cn1c-2c(C2CCCCC2)c2ccc(C(=O)NS(=O)(=O)N(C)C)cc21	–	–	EC50 (HCV replicon cells; [2]): 1 to 500 nM; IC50 [1, 3]: 1 to 500 nM
COc1ccc2c(c1)C1CC1(CN1C3CCC1CN(C)C3)Cn1c-2c(C2CCCCC2)c2ccc(C(=O)NS(=O)(=O)N(C)C)cc21 (stereo not drawn)	1 to 500	1 to 500	–
COc1ccc2c(c1)C1CC1(C(=O)N1C3CCC1CN(C(=O)OCc1ccccc1)C3)Cn1c-2c(C2CCCCC2)c2ccc(C(=O)NS(=O)(=O)N(C)C)cc21 (stereo not drawn)	1 to 500	1 to 500	–
COc1ccc2c(c1)C1CC1(C(=O)N1C3CCC1CN(C)C3)Cn1c-2c(C2CCCCC2)c2ccc(C(=O)NS(=O)(=O)N3CCCC3)cc21 (stereo not drawn)	1 to 500	1 to 500	–
COc1ccc2c(c1)[C@@H]1C[C@]1(C(=O)N1[C@@H]3CC[C@H]1CN(C(=O)N(C)C)C3)Cn1c-2c(C2CCCCC2)c2ccc(C(=O)NS(=O)(=O)N(C)C)cc21	1 to 500	1 to 500	–
COc1ccc2c(c1)[C@@H]1CC1[C@@H](C(=O)N1C3CCC1CN(C)C3)n1c-2c(C2CCCCC2)c2ccc(C(=O)N(C)S(=O)(=O)N(C)C)cc21 (stereo partly drawn)	> 40	> 500	–
COc1ccc2c(c1)C1CC1(C(=O)N1C3CCC1CN(C)C3)Cn1c-2c(C2CCCCC2)c2ccc(C(=O)NS(=O)(=O)C3CCCCC3)cc21 (stereo not drawn)	1 to 500	1 to 500	–
CCCCS(=O)(=O)NC(=O)c1ccc2c(C3CCCCC3)c3n(c2c1)CC1(C(=O)N2C4CCC2CN(C)C4)CC1c1cc(OC)ccc1-3 (stereo not drawn)	1 to 500	1 to 500	–
CCC(C)S(=O)(=O)NC(=O)c1ccc2c(C3CCCCC3)c3n(c2c1)CC(C(=O)N1C2CCC1CN(C)C2)=Cc1cc(OC)ccc1-3 (stereo not drawn)	1 to 500	1 to 500	–
CCC(CC)S(=O)(=O)NC(=O)c1ccc2c(C3CCCCC3)c3n(c2c1)CC1(C(=O)N2C4CCC2CN(C)C4)CC1c1cc(OC)ccc1-3 (stereo not drawn)	> 110	1 to 500	–
COc1ccc2c(c1)[C@@H]1CC1(C(=O)N1C3CCC1CN(C)C3)Cn1c-2c(C2CCCCC2)c2ccc(C(=O)NS(=O)(=O)C3CCC3)cc21 (stereo partly drawn)	–	1 to 500	EC50 (HCV replicon cells; [2]): 1 to 500 nM
COc1ccc2c(c1)[C@@H]1CC1(C(=O)N1C3CCC1CN(C)C3)Cn1c-2c(C2CCCCC2)c2ccc(C(=O)NS(=O)(=O)CC(C)C)cc21 (stereo partly drawn)	–	1 to 500	EC50 (HCV replicon cells; [2]): 1 to 500 nM
COc1ccc2c(c1)C1CC1(C(=O)N1C3CCC1CN(C)C3)Cn1c-2c(C2CCCCC2)c2ccc(C(=O)NS(=O)(=O)CC(F)F)cc21 (stereo not drawn)	1 to 500	1 to 500	–
COc1ccc2c(c1)C1CC1(C(=O)N1C3CCC1CN(C)C3)Cn1c-2c(C2CCCCC2)c2ccc(C(=O)NS(=O)(=O)C(F)(F)F)cc21 (stereo not drawn)	1 to 500	1 to 500	–
COc1ccc2c(c1)C1CC1(C(=O)N1C3CCC1CN(C)C3)Cn1c-2c(C2CCCCC2)c2ccc(C(=O)NS(=O)(=O)N(C)C)cc21 (stereo not drawn) [drawing 24]	–	–	EC50 (HCV replicon cells; HCV replicon cells, FRET or luciferase activity, read-out: EC50): 1 to 500 nM; IC50 [1, 3]: 1 to 500 nM
CNS(=O)(=O)NC(=O)c1ccc2c(C3CCCCC3)c3n(c2c1)CC1(C(=O)N2C4CCC2CN(C)C4)CC1c1cc(OC)ccc1-3 (stereo not drawn) [drawing 29]	1 to 500	1 to 500	–
COc1ccc2c(c1)C1CC1(C(=O)N1C3CCC1CN(C)C3)Cn1c-2c(C2CCCCC2)c2ccc(C(=O)NS(=O)(=O)N3CCC3)cc21 (stereo not drawn) [drawing 30]	–	–	EC50 (HCV replicon cells; HCV replicon cells, FRET or luciferase activity): 1 to 500 nM; IC50 ([1]; HCV NS5B RdRp genotype 1b enzyme): 1 to 500 nM
COc1ccc2c(c1)C1CC1(C(=O)N1C3CCC1CN(C)C3)Cn1c-2c(C2CCCCC2)c2ccc(C(=O)NS(=O)(=O)N3CCOCC3)cc21 (stereo not drawn) [drawing 31]	1 to 500	1 to 500	–
COc1ccc2c(c1)C1CC1(C(=O)N1C3CCC1CN(C)C3)Cn1c-2c(C2CCCCC2)c2ccc(C(=O)NS(=O)(=O)N3CCN(C)CC3)cc21 (stereo not drawn) [drawing 32]	1 to 500	1 to 500	–
